# Read-outs that look alike come from different tables or passages of the source.
# What was measured:
# Assay in all cases: MIC, microdilution broth method (NCCLS)
# Assay type in all cases: cell-based
# [1] = system: S. pneumoniae ATCC49619; conditions: D: S. pneumoniae ATCC49619, 35° C., 16-20 hours
# Protocol: (§1) Minimal inhibitory concentration (MIC) has been an indicator of in vitro antibacterial activity widely used in the art. The in vitro antimicrobial activity of the compounds was determined by the microdilution broth method following the test method from the National Committee for Clinical Laboratory Standards (NCCLS). This method is described in the NCCLS Document M7-A4, Vol. 17, No. 2, “Methods for Dilution Antimicrobial Susceptibility Test for Bacteria that Grow Aerobically—Fourth Edition”, which is incorporated herein by reference.
# (§2) In this method two-fold serial dilutions of drug in cation adjusted Mueller-Hinton broth are added to wells in microdilution trays. The test organisms are prepared by adjusting the turbidity of actively growing broth cultures so that the final concentration of test organism after it is added to the wells is approximately 5×10^4 CFU/well.
# (§3) Following inoculation of the microdilution trays, the trays are incubated at 35° C. for 16-20 hours and then read. […] The amount of growth in the wells containing the test compound is compared with the amount of growth in the growth-control wells (no test compound) used in each tray. As set forth in Table 1, compounds of the present invention were tested against a variety of Gram positive and Gram negative pathogenic bacteria resulting in a range of activities depending on the organism tested.
# [2] = system: E. coli OC2605; conditions: A: E. coli OC2605, 35° C., 16-20 hours
# Protocol: as §1, §2, §3
# [3] = system: S. aureus ATCC29213; conditions: B: S. aureus ATCC29213, 35° C., 16-20 hours
# Protocol: as §1, §2, §3
# [4] = system: E. faecalis ATCC29212; conditions: C: E. faecalis ATCC29212, 35° C., 16-20 hours
# Protocol: as §1, §2, §3
# [5] = system: H. influenzae ATCC49247; conditions: E: H. influenzae ATCC49247, 35° C., 16-20 hours
# Protocol: as §1, §2, §3
SMILES,MIC [1],MIC [2],MIC [3],MIC [4],MIC [5],"MIC ([1]; Streptococcus pneumoniae, read-out: MIC)","MIC ([2]; Escherichia coli, read-out: MIC)","MIC ([3]; Staphylococcus aureus, read-out: MIC)","MIC ([4]; Enterococcus faecalis, read-out: MIC)"
CC[C@H]1OC(=O)[C@H](C)C(=O)[C@H](C)[C@@H](O[C@@H]2O[C@H](C)C[C@H](N(C)C)[C@H]2O)[C@](C)(OC(=O)NCc2ccccc2)C[C@@H](C)C(=O)[C@H](C)[C@H]2NC(=O)O[C@@]21C [Compound 1],0.03 µg/mL,>16 µg/mL,4 µg/mL,0.12 µg/mL,–,–,–,–,–
CC[C@H]1OC(=O)[C@H](C)C(=O)[C@H](C)[C@@H](O[C@@H]2O[C@H](C)C[C@H](N(C)C)[C@H]2O)[C@](C)(OC(=O)NCCCc2ccccc2)C[C@@H](C)C(=O)[C@H](C)[C@H]2NC(=O)O[C@@]21C [Compound 2],0.06 µg/mL,16 µg/mL,1 µg/mL,0.25 µg/mL,2 µg/mL,–,–,–,–
CC[C@H]1OC(=O)[C@H](C)C(=O)[C@H](C)[C@@H](O[C@@H]2O[C@H](C)C[C@H](N(C)C)[C@H]2O)[C@](C)(OC(=O)NCCc2ccccc2)C[C@@H](C)C(=O)[C@H](C)[C@H]2NC(=O)O[C@@]21C [Compound 3],0.12 µg/mL,>16 µg/mL,4 µg/mL,1 µg/mL,8 µg/mL,–,–,–,–
CC[C@H]1OC(=O)[C@H](C)C(=O)[C@H](C)[C@@H](O[C@@H]2O[C@H](C)C[C@H](N(C)C)[C@H]2O)[C@](C)(OC(=O)NC/C=C/c2ccccc2)C[C@@H](C)C(=O)[C@H](C)[C@H]2NC(=O)O[C@@]21C [Compound 4],0.03 µg/mL,>16 µg/mL,0.25 µg/mL,0.12 µg/mL,1 µg/mL,–,–,–,–
CC[C@H]1OC(=O)[C@H](C)C(=O)[C@H](C)[C@@H](O[C@@H]2O[C@H](C)C[C@H](N(C)C)[C@H]2O)[C@](C)(OC(=O)NCc2ccc(Br)cc2)C[C@@H](C)C(=O)[C@H](C)[C@H]2NC(=O)O[C@@]21C [Compound 5],0.03 µg/mL,>16 µg/mL,0.5 µg/mL,0.25 µg/mL,–,–,–,–,–
CC[C@H]1OC(=O)[C@H](C)C(=O)[C@H](C)[C@@H](O[C@@H]2O[C@H](C)C[C@H](N(C)C)[C@H]2O)[C@](C)(OC(N)=O)C[C@@H](C)C(=O)[C@H](C)[C@H]2NC(=O)O[C@@]21C [Compound 6],0.12 µg/mL,>16 µg/mL,4 µg/mL,1 µg/mL,–,–,–,–,–
CC[C@H]1OC(=O)[C@H](C)C(=O)[C@H](C)[C@@H](O[C@@H]2O[C@H](C)C[C@H](N(C)C)[C@H]2O)[C@](C)(OC(=O)NCc2ccc(-n3cccn3)cc2)C[C@@H](C)C(=O)[C@H](C)[C@H]2NC(=O)O[C@@]21C [Compound 7],0.03 µg/mL,16 µg/mL,0.5 µg/mL,0.06 µg/mL,4 µg/mL,–,–,–,–
"CC[C@H]1OC(=O)[C@H](C)C(=O)[C@H](C)[C@@H](O[C@@H]2O[C@H](C)C[C@H](N(C)C)[C@H]2O)[C@](C)(OC(=O)NC/C=C/c2ccc(-c3ncccn3)cc2)C[C@@H](C)C(=O)[C@H](C)[C@H]2NC(=O)O[C@@]21C [Compound 32, Carbamic acid, [(2E)-3-[4-(2-pyrimidinyl)phenyl]-2-propenyl]-, (3aS,4R,7R,9R,10R,11R,13R,15R,15aR)-4-ethyltetradecahydro-3a,7,9,11,13,15-hexamethyl-2,6,8,14-tetraoxo-10-[[3,4,6-trideoxy-3-(dimethylamino)-β-D-xylo-hexopyranosyl]oxy]-2H-oxacyclotetradecino[4,3-d]oxazol-11-yl ester]",–,–,–,–,–,0.06 µg/mL,16 µg/mL,0.12 µg/mL,0.06 µg/mL
CC[C@H]1OC(=O)[C@H](C)C(=O)[C@H](C)[C@@H](O[C@@H]2O[C@H](C)C[C@H](N(C)C)[C@H]2O)[C@](C)(OC(=O)NC/C=C/c2ccc(-n3ccnn3)cc2)C[C@@H](C)C(=O)[C@H](C)[C@H]2NC(=O)O[C@@]21C [Compound 33],≦0.015 μg/mL,8 µg/mL,0.12 µg/mL,0.06 µg/mL,–,–,–,–,–
CC[C@H]1OC(=O)[C@H](C)C(=O)[C@H](C)[C@@H](O[C@@H]2O[C@H](C)C[C@H](N(C)C)[C@H]2O)[C@](C)(OC(=O)NC/C=C/c2ccnc3ccccc23)C[C@@H](C)C(=O)[C@H](C)[C@H]2NC(=O)O[C@@]21C [Compound 34],≦0.015 μg/mL,8 µg/mL,0.12 µg/mL,0.06 µg/mL,–,–,–,–,–
